Columns and labels:
Mus musculus [1] = assay: Effect on salivation in mice, after intraperitoneal administration of 10 mg/kg, activity expressed as a score using a scale of 0-2.; type: functional
A9 = assay: Stimulating PI (phosphoinositol) hydrolysis in A9L-m1 cells.; type: functional, Mus musculus
Mus musculus [2] = assay: Minimum effective dose after ip administration, to stimulate salivation in mice; type: functional; conditions: read-out: MED
[3] = target: T1, Muscarinic acetylcholine receptor M1 (Rattus norvegicus, UniProt P08482); assay: Binding activity against muscarinic acetylcholine receptor M1 in rat brain, using [3H]OXO-M as the radioligand.; type: tissue-based
T1 sequence (P08482 whole entry): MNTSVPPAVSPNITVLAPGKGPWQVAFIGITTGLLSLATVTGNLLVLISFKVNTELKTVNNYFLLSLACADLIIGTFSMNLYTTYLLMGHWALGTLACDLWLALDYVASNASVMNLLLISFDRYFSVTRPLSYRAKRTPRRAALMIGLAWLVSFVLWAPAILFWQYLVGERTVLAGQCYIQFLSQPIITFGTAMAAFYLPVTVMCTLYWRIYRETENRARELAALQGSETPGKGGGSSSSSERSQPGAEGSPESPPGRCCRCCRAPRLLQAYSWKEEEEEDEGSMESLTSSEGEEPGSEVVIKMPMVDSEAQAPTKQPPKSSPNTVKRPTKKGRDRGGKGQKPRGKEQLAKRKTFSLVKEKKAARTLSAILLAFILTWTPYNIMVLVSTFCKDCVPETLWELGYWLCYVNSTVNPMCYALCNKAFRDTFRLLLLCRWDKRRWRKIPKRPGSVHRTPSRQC

[4] = target: T1, Muscarinic acetylcholine receptor M1; assay: Binding activity against muscarinic acetylcholine receptor M1 in rat brain, using [3H]-Pz as the radioligand.; type: tissue-based

Compound	Score (Mus musculus [1])	Max (A9) [%]	minimal effective dose (Mus musculus [2]) [mg/kg]	IC50 [3] [nM]	IC50 [4] [nM]
CCCCCCOc1nccnc1[C@H]1CN2CCC1C2 (stereo not given in full)	1.6	40	1	5.6	7
CCCCCCOc1nccnc1C1CN2CCC1CC2 (stereo not given)	0	40		4.5	6
Cc1nccnc1C1CN2CCC1CC2 (stereo not given)	2	4	3	23	80
CCCCCCOc1nccnc1[C@@H]1CN2CCCC1C2 (stereo not given in full)	0	4		180	120
CCCCCCOc1nccnc1C1=CCCN(C)C1	0	12			
CCCCCOc1nccnc1C1CN2CCC1CC2 (stereo not given)	0.2	32		6	7
Clc1nccnc1C1CN2CCC1CC2 (stereo not given)	1.2	13	10	56	180
Clc1cncc(C2CN3CCC2CC3)n1 (stereo not given)	1	8	3	4.6	4.7
CCCCCCOc1nccnc1[C@H]1CN2CCC1CC2	0	46		11.3	10.6
C[N+](C)(C)CC#CCOC(=O)Nc1cccc(Cl)c1.[Cl-]		52			
CCCCCCOc1nccnc1C1=CCCCNC1	0	5		167	44
CCCCCCOc1nccnc1[C@@H]1CN2CCC1C2 (stereo not given in full)	0.6	31		46	58
CCCCCCCOc1nccnc1C1CN2CCC1CC2 (stereo not given)	0	35		10	13
CCCCOc1nccnc1C1CN2CCC1CC2 (stereo not given)	0	15		5	10
CCCCCCOc1nccnc1C1=CCCCN(C)C1	0	2		117	26
CCCCCSc1nccnc1C1CN2CCC1CC2 (stereo not given)	0	7		0.7	1.1
c1cnc(C2CN3CCC2CC3)cn1 (stereo not given)	1.4	80	0.1	4	74
CCCOc1nccnc1C1CN2CCC1CC2 (stereo not given)	0	4		9	19
CCOc1nccnc1C1CN2CCC1CC2 (stereo not given)	0	1		23	38
CCCCCCOc1nccnc1[C@H]1CN2CCCC1C2 (stereo not given in full)	0	12		4	2.5
CCCCSc1nccnc1C1CN2CCC1CC2 (stereo not given)	0	5		0.5	0.4
COC(=O)C1=CCCN(C)C1 [ARECOLINE]	0	73			
CCCCCCOc1nsnc1C1=CCCN(C)C1 [XANOMELINE]	0	55			
COc1nccnc1C1CN2CCC1CC2 (stereo not given)	0	1		72	111
CCCCCCOc1nccnc1[C@@H]1CN2CCC1CC2	0	33		2.5	3.7
CCCCCCSc1nccnc1C1CN2CCC1CC2 (stereo not given)	0	16		2	2.2

Source: ChEMBL document CHEMBL1128691, “Functionally selective M1 muscarinic agonists. 3. Side chains and azacycles contributing to functional muscarinic selectivity among pyrazinylazacycles” (J Med Chem, 1995)
